Test results from EP3016671B1, “ACTIVELY T[…] PROTEASE-RESISTANT PEPTIDES AS BBB SHUTTLES AND SHUTTLE-CARGO CONSTRUCTS” (Universitat de Barcelona, priority 2013, dated 2015).
Positions of bridges follow the written chain, without caps; N, C: chain ends. Non-standard residues stand in square brackets, D forms with d. Residues, ends and D or L forms follow the SMILES beside them. Dap = NC[C@H](N)C(=O)O

Key:
mice [1] = details: amount in 200 µL injected; cited from earlier work
mice [2] = test: Acute toxicity (lethality) after intracaudal injection in mice; type: in vivo, Swiss white mice; details: six mice, observed up to 24 hours
Procedure: (§1) • 1) In zebra fish: The assay was performed by Neuron Bio (Granada). The protocol was based on the assessment of the acute toxicity of substances on zebra fish (Danio rerio) using a static method. This short-term toxicity assay method replicated the guidelines of the document OECD Draft Guideline for the study of chemicals, Fish Embryo Toxicity (FET) Test (30 May, 2006). 5 concentrations were evaluated (4.6, 10, 22, 46 and 100 mg/L) in water containing 0.1% DMSO. A control group (vehicle: water and 0.1 % DMSO) and a group with 3,4-dicloroaniline were set up to make sure test conditions were reproducible. […] Apamin (SEQ ID NO:16) was dissolved in phosphate buffer saline (vehicle) so that 200 µL would contain 50 nmol of this peptide (corresponding to its LD50). Compound with SEQ ID NO:9 was dissolved in the same buffer so that 200 µL would contain 1200 nmol of this peptide (near the solubility limit). A first group of six mice (male, 20±2 g, Swiss white mice) were injected with 200 µL of apamin. A second group of six mice were injected with 200 µL of compound with SEQ ID NO:9. A third group of mice were injected with 200 µL of vehicle.

[3] = Transport across the BBB, in vitro bovine cell assay (co-culture, transwell); details: pH 7.4
From the text: (§2) The evaluation method chosen to test the compounds of formula (I) and (II) of the invention was a cell-based assay consisting of a co-culture of brain endothelial cells and astrocytes, which allows to evaluate or to predict the transport of compounds through the BBB. The co-culture method used was described by Gaillard and de Boer in 2008 (Gaillard, PJ et al. "2B-Trans technology: targeted drug delivery across the blood-brain barrier" Methods Mol Biol 2008, vol. 437 pp. 161-175) and consists in seeding of rat astrocytes in a side of a polycarbonate filter (transwell) and bovine brain endothelial cells on the other side of the filter. Under these conditions endothelial cells are able to reach the confluence mimicking the BBB. […] Is commonly used model for permeation studies and toxicity of compounds across the BBB.
(§3) The co-culture assay was used to determine the capacity of the constructs cargo-shuttle to cross the BBB. The apparent permeability of the compounds was measured in triplicate at a concentration of 200 µ M for Examples 1, 2, 3, 5, 10, 13, 15, 16, 17 and 19 and at a concentration of 1.75 µM for Example 21. All the assays were performed with transendothelial electrical resistance values equal or higher than 100 Ω · cm^2 and were carried out in the presence of lucifer yellow to assess the integrity of the cell membrane during the test. The permeability tests were performed in Ringer-HEPES buffer at pH 7.4. The compound of interest was dissolved in the buffer to the desired concentration.
(§4) Once the endothelial cells were confluent on the filters (transwells) these were washed with Ringer-HEPES buffer. The acceptor well was filled with 800 µ L of Ringer-HEPES buffer and the donor well with 200 µL of the solution of the compound to be studied. The system was incubated at 37 °C and 5% CO2 for 2 h. After that time the content of the acceptor and donor compartments were analyzed by HPLC-UV, direct ELISA or fluorescence (depending on cargo anchored to the shuttle). […] The apparent permeability was calculated using the following equation: Papp = (dQ/dt) * (1/A) * (1/CO) (cm/s), where (dQ/dt) is the amount of compound present in the compartment acceptor function of time (nmol/s). A is the area of the filter(cm2) and CO is the initial concentration of the compound applied in the donor compartment (nmol/mL).

[4] = tested on: bovine brain endothelial cells; test: as above; details: bovine cell model, 2 h, 37 °C, Ringer-HEPES pH 7.4; 200 µM (Example 21: 1.75 µM)
From the text: as §2, §3, §4

[5] = Solubility limit in phosphate buffer saline (dosing solution); type: physicochemical; details: in 200 µL phosphate buffer saline
Procedure: as §1

[6] = Stability of the shuttles in human serum; type: in vitro ADME; details: 400 µM, HBSS, 37 °C, 90% human serum, 24 h
Procedure: Regarding to the stability study in human serum of the BBB-shuttle (examples 1, 2, 3 and 5), the peptides were incubated at a concentration of 400 µM in buffer HBSS at 37 °C in the presence of 90% human serum. At a range of times, 100 µL aliquots were collected to which methanol was added in order to precipitate the serum proteins. Samples were centrifuged, filtered and analyzed by HPLC-UV and MALDI-TOF MS to determine the degree of degradation of the BBB-shuttle. […] The half life of the derivative bearing a single disulfide bond was 3 h (examples 2), whereas that of the linear version was no more than 8 min.

[7] = PAMPA assay (passive diffusion); type: in vitro ADME; details: 400 µM, pH 7.4, 4 h, 20°C, four replicates
Procedure: The buffer was prepared from the concentrated solution by plON, following the manufacturer's instructions. The pH was adjusted to 7.4 using a solution of 0.5 M NaOH. The PAMPA sandwich was separated, and the donor well was filled with 195 µL of the compound with SEQ ID NO 9 (400 µM) solution and a stirring magnet was added. The acceptor plate was then placed into the donor plate. Next, 4 µL of the 20 mg/mL phospholipid mixture (PBLEP) in dodecane was added to the filter of each well, and 200 µL of buffer solution was added to each acceptor well. The plate was then covered. Four replicates were performed for each compound. The PAMPA plate was incubated for 4 h at 20°C and under saturated atmosphere in a GUT-BOXTM apparatus under an agitation vigorous enough to reduce the unstirred water layer (UWL) to 25 µm. After the incubation, the sandwich was separated, and an aliquot of each donor and acceptor well was analyzed by RP-HPLC-UV ad MALDI-TOF MS.

[8] = Evidences of active transport in the bovine cell model (NaN3 inhibition, saturation, 4 °C, abluminal-luminal); type: in vitro ADME; details: bovine; 200 µM, 37 °C, 2 h, abluminal compartment as donor
Procedure: (§5) 1) NaN3 inhibition: Sodium azide (NaN3) is an inhibitor of the resipiratory pathway and, therefore, decreases energy-dependent processes such as transcytosis. […] 2) saturation: Three concentrations of the compound with SEQ ID NO9 were assayed following the procedure of the Example 28.
(§6) The results are consistent with a saturable transport mechanism considering the plateau region has been reached at 100 µM. 3) dramatic decrease in permeability at reduced temperature: The procedure of the Example 28 was followed until the endothelial cells were confluent. To perform the experiment, the filters (transwells) were washed with Ringer-HEPES buffer. The abluminal compartment was filled with 800 µL of Ringer-HEPES and the luminal compartment was filled with 200 µL of the compound with SEQ ID NO 9 in Ringer-HEPES (200 µM). The system was incubated at 4 °C and 5 % CO2 for 2 h. […] The permeability at 4 °C is 0.23±0.04)·10^-6 cm/s, which is dramatically lower (P < 0.0001, unpaired t-test) than at 37 °C. This low transport is consistent with an energy-dependent process. 4) luminal-abluminal transport > abluminal-luminal transport.: The procedure of the Example 28 was followed until the endothelial cells were confluent. […] The abluminal compartment (in this experiment the donor) was filled with 800 µL of the compound with SEQ ID NO 9 in Ringer-HEPES (200 µM) and the luminal compartment (in this experiment the acceptor) with 200 µL Ringer-HEPES.

[9] = tested on: bovine brain endothelial cells; test: as above; type: in vitro ADME; details: for Relative transport: saturation
Procedure: as §5, §6

zebra fish (Danio rerio) = test: Acute toxicity in zebra fish, Fish Embryo Toxicity (FET) test; type: in vivo; details: static method, 4.6, 10, 22, 46 and 100 mg/L in water containing 0.1% DMSO
Procedure: as §1

[10] = Transport across the BBB, in vitro human cell assay (co-culture, transwell); type: in vitro ADME; details: human cell model, 37 °C, Ringer-HEPES pH 7.4, 200 µM peptides, 25 nM Examples 22 and 23, 30 nM Example 24, 5 nM Example 25, read-out: Papp (x 10^6)
Procedure: (§7) Due to the great interest to know whether the cargo-BBB shuttle conjugates would be transported across human brain endothelial cells, some of the most relevant cargoes for therapy and diagnosis were assayed in a novel human-based BBB cell model. In this case, the co-culture method used was described by Cecchelli et al. (Cecchelli et al. PloS One. 2014. vol9. pp. e99733) and consists in seeding bovine pericytes in the bottom of a 12-well plate and human endothelial cells derived from hematopoietic stem cells on a transwell filter.
(§8) The compound of interest was disolved or buffer-exhanged and diluted to the desired concentration.
(§9) Cetuximab and cetuximab conjugates were radiolabelled to be assayed in the cell model. Pierce^(R) iodination beads were used following the instructions provided by the manufacturer.
(§10) The apparent permeability was calculated using the same equation as for the bovine cell model.

[11] = tested on: human endothelial cells derived from hematopoietic stem cells; test: as above; type: in vitro ADME; details: human cell model, 37 °C, Ringer-HEPES pH 7.4, 200 µM peptides, 25 nM Examples 22 and 23, 30 nM Example 24, 5 nM Example 25
Procedure: as §7, §8, §9, §10

CC(C)C[C@@H]1NC(=O)[C@H](C)NC(=O)[C@H]([C@@H](C)O)NC(=O)[C@H](CCC(=O)O)NC(=O)[C@@H]2CCCN2C(=O)[C@H](C)NC(=O)[C@H](CCCCN)NC(=O)[C@@H]2CSSC[C@@H](C(=O)N[C@@H](CCC(N)=O)C(=O)N[C@@H](CCC(N)=O)C(=O)N[C@@H](Cc3cnc[nH]3)C(N)=O)NC(=O)[C@H](CCCNC(=N)N)NC(=O)[C@H](CCCNC(=N)N)NC(=O)[C@H](C)NC(=O)[C@H](CSSC[C@H](N)C(=O)N[C@@H](CC(N)=O)C(=O)N2)NC1=O [Comparative example 1, H-Cys-Asn-Cys-Lys-Ala-Pro-Glu-Thr- Ala-Leu-Cys-Ala-Arg-Arg-Cys-Gln-Gln-His-NH2, reference compound]
LD50 (mice [1]): 50 nmol | animals that died (mice [2]; 50 nmol in 200 µL): two | animals that showed convulsions during the first hours (mice [2]; 50 nmol in 200 µL): All the animals | Papp [3]: 0.8 ± 0.1 ×10⁻⁶ cm/s | Transport (%) (2h) [4]: 0.9±0.2%

CC(C)C[C@@H]1NC(=O)[C@H](C)NC(=O)[C@H]([C@@H](C)O)NC(=O)[C@H](CCC(=O)O)NC(=O)[C@@H]2CCCN2C(=O)[C@H](C)NC(=O)[C@H](CCCCN)NC(=O)[C@@H]2CSSC[C@@H](C(=O)N[C@@H](Cc3c[nH]cn3)C(N)=O)NC(=O)[C@H](C)NC(=O)[C@H](C)NC(=O)[C@H](C)NC(=O)[C@H](CSSC[C@H](N)C(=O)N[C@@H](CC(N)=O)C(=O)N2)NC1=O [Example 1, H-Cys-Asn-Cys-Lys-Ala-Pro-Glu-Thr-Ala-Leu-Cys-Ala-Ala-Ala-Cys-His-NH2] (H-CNCKAPETALCAAACH-NH2; disulfide 1-11, 3-15)
solubility limit [5]: ~1200 nmol | animals that died (mice [2]; 1200 nmol in 200 µL): no animal | animals that showed any envenomation symptoms (mice [2]; 1200 nmol in 200 µL): no animal | degradation in human serum [6]: No degradation | Papp at 2 h ([3]; bovine): 2.7 ± 0.3 ×10⁻⁶ cm/s | Transport (%) (2h) [4]: 3.2±0.3% | detection in PAMPA by HPLC-UV [7]: could not be detected | detection in PAMPA by MALDI-TOF MS [7]: only in two out of four replicates was found | Papp B→A at 2 h, 200 µM [8]: 1.06 ± 0.03 ×10⁻⁶ cm/s | permeability at 4 °C ([9]; 200 µM, 4 °C, 5 % CO2, 2 h, luminal to abluminal): 0.23±0.04 ·10^-6 cm/s | transport after NaN3 treatment ([9]; 30 min treatment with 1.5 mM sodium azide prior to the permeability assay): very significantly (p < 0.001) inhibited | Relative transport ([9]; concentration 100 µM): 100±39 | Relative transport ([9]; concentration 200 µM): 110±6 | Relative transport ([9]; concentration 500 µM): 86±6 | lethal parameters of the embryos (zebra fish (Danio rerio)): None of the lethal parameters studied in the embrios treated with the compound with SEQ ID NO:9 was different from those treated with the vehicle

CC[C@H](C)[C@H](NC(=O)[C@H](CCC(=O)O)NC(=O)[C@@H](NC(=O)[C@H](CCC(N)=O)NC(=O)[C@H](CCCCN)NC(=O)[C@@H]1CC(=O)NC[C@H](N)C(=O)N[C@@H](CCCCN)C(=O)N[C@@H](C)C(=O)N2CCC[C@H]2C(=O)N[C@@H](CCC(=O)O)C(=O)N[C@@H]([C@@H](C)O)C(=O)N[C@@H](C)C(=O)N[C@@H](CC(C)C)C(=O)N1)[C@@H](C)CC)C(=O)N[C@@H](CCCCN)C(=O)N[C@@H](CCCCN)C(=O)N[C@@H](Cc1ccccc1)C(=O)N[C@@H](CCCCN)C(N)=O [Example 27, H-Dap-Lys-Ala-Pro-Glu-Thr-Ala-Leu-Asp-Lys-Gln-Ile-Glu-Ile-Lys-Lys-Phe-Lys-NH2] (H-[Dap]KAPETALDKQIEIKKFK-NH2; lactam 1-9)
Papp at 2 h [10]: 1.9 ± 0.1 ×10⁻⁶ cm/s | Transport (%) (2h) [11]: 3.1±0.2%
